Experimental findings from article PMC10261806, “Development of lentil peptides with potent antioxidant, antihypertensive, and antidiabetic activities along with umami taste” (Food Science & Nutrition, 2023) are described below.

Each structure is given as a SMILES string.

The target in the assay is T1, rat intestinal α-glucosidase.
T1 construct: gene Si; native commercial rat intestinal preparation (Sigma I1630, usually intestinal acetone powder)
The assay can be described thus: p-nitrophenyl-α-D-glucopyranoside hydrolysis, absorbance at […] nm. To be noted: 5 mM PNPG stock, pH 6.8-6.9, 37 °C, 10 min preincubation; positive control. In kind it is biochemical.

As for `C[C@H]1O[C@H](O[C@H]2[C@H](O)[C@@H](O)[C@@H](O[C@H]3[C@H](O)[C@@H](O)C(O)O[C@@H]3CO)O[C@@H]2CO)[C@H](O)[C@@H](O)[C@@H]1N[C@H]1C=C(CO)[C@@H](O)[C@H](O)[C@H]1O` (stereo partly shown) [acarbose], the “IC50 of inhibitory activity / α-Glucosidase” value turned out to be 510 ± 70 µg/mL.
